# Results published in patent EP2951180B1, “2,6,7,8 SUBSTITUTED PURINES AS HDM2 INHIBITORS” (Merck Sharp & Dohme Corp., priority 2013, dated 2014).
# Biological target: T1, HDM2 (Homo sapiens, UniProt Q00987)
# T1 construct: Thioredoxin (N); made in house; host or cells: E. coli strain BL21(DE3)Rosetta
# Assay: FRET assay (HDM2 inhibition; method not described in this part)
# Type: binding
# Conditions: Table 1
# T1 sequence (Q00987 17-125): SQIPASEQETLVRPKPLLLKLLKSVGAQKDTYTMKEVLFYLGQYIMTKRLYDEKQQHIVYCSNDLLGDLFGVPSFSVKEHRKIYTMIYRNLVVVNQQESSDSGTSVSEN
row,Structure (SMILES),IC50 [nM]
1,"COc1ccc(-c2nc3nc(C(=O)O)nc(N[C@H](C)C4CCC4)c3n2Cc2ccc(C(F)(F)F)cc2)c(F)c1 [Example 1.136, 6-{[(1R)-1-cyclobutylethyl]amino}-8-(2-fluoro-4-methoxyphenyl)-7-[4-(trifluoromethyl)benzyl]-7H-purine-2-carboxylic acid]",125
2,"Cc1ccnc(-c2nc3nc(C(=O)O)nc(N[C@H](C)C4CCC4)c3n2Cc2ccc(C(F)(F)F)cc2)c1 [Example 1.17, 6-{[(1R)-1-cyclobutylethyl]amino}-8-(4-methylpyridin-2-yl)-7-[4-(trifluoromethyl)benzyl]-7H-purine-2-carboxylic acid]",12.7
3,"C[C@@H](Nc1nc(C(=O)O)nc2nc(-c3ccc(N4CCOCC4)cc3)n(Cc3ccc(C(F)(F)F)cc3)c12)C1CC1 [Example 1.97, 6-{[(1R)-1-cyclopropylethyl]amino} -8-(4-morpholin-4-ylphenyl)-7-[4-(trifluoromethyl)benzyl]-7H-purine-2-carboxylic acid]",1540
4,"Cc1ccc(F)cc1-c1nc2nc(C(=O)O)nc(N[C@H](C)C3CCC3)c2n1Cc1ccc(C(F)(F)F)cc1 [Example 1.103, 6-{[(1R)-1-cyclobutylethyl]amino}-8-(5-fluoro-2-methylphenyl)-7-[4-(trifluoromethyl)benzyl]-7H-purine-2-carboxylic acid]",10.8
5,"C[C@@H](Nc1nc(C(=O)O)nc2nc(-c3ccc(C(C)(C)C)cc3)n(Cc3ccc(C(F)(F)F)cc3)c12)C1CCC1 [Example 1.114, 8-(4-tert-butylphenyl)-6-{[(1R)-1-cyclobutylethyl]amino}-7-[4-(trifluoromethyl)benzyl]-7H-purine-2-carboxylic acid]",393
6,"COc1cc(-c2nc3nc(C(=O)O)nc(N[C@H](C)C4CCC4)c3n2Cc2ccc(C(F)(F)F)cc2)ccc1Cl [Example 1.124, 8-(4-chloro-3-methoxyphenyl)-6-{[(1R)-1-cyclobutylethyl]amino}-7-[4-(trifluoromethyl)benzyl]-7H-purine-2-carboxylic acid]",26.4
7,"CC(C)c1ccc(OC(F)(F)F)c(-c2nc3nc(C(=O)O)nc(N[C@H](C)C4CCC4)c3n2Cc2ccc(C(F)(F)F)cc2)c1 [Example 1.52, 6-{[(1R)-1-cyclobutylethyl]amino}-8-[5-(1-methylethyl)-2-(trifluoromethoxy)phenyl]-7-[4-(trifluoromethyl)benzyl] - 7H-purine-2-carboxylic acid]",6.25
8,"C[C@@H](Nc1nc(C(=O)O)nc2nc(-c3ccc(OC(F)F)cn3)n(Cc3ccc(C(F)(F)F)cc3)c12)C1CCC1 [Example 1.66, 6-{[(1R)-1-cyclobutylethyl]amino}-8-[5-(difluoromethoxy)pyridin-2-yl]-7-[4-(trifluoromethyl)benzyl]-7H-purine-2-carboxylic acid]",58.4
9,"Cc1cc(C)cc(-c2nc3nc(C(=O)O)nc(N[C@H](C)C4CCC4)c3n2Cc2ccc(C(F)(F)F)cc2)c1 [Example 1.131, 6-{[(1R)-1-cyclobutylethyl]amino}-8-(3,5-dimethylphenyl)-7-[4-(trifluoromethyl)benzyl]-7H-purine-2-carboxylic acid]",369
10,"C[C@@H](Nc1nc(C(=O)O)nc2nc(-c3cc(N(C)C)ccn3)n(Cc3ccc(C(F)(F)F)cc3)c12)C1CCC1 [Example 1.47, 6-{[(1R)-1-cyclobutylethyl]amino}-8-[4-(dimethylamino)pyridin-2-yl]-7-[4-(trifluoromethyl)benzyl]-7H-purine-2-carboxylic acid]",16.4
11,"C[C@@H](Nc1nc(C(=O)O)nc2nc(-c3ccc(Cl)c(C(F)(F)F)c3)n(Cc3ccc(C(F)(F)F)cc3)c12)C1CCC1 [Example 1.115, 8-[4-chloro-3-(trifluoromethyl)phenyl]-6-{[(1R)-1-cyclobutylethyl]amino}-7-[4-(trifluoromethyl)benzyl]-7H-purine-2-carboxylic acid]",17.3
12,"C[C@@H](Nc1nc(C(=O)O)nc2nc(-c3cc(N(C)C)ccc3O)n(Cc3ccc(C(F)(F)F)cc3)c12)C1CCC1 [Example 1.42, 6-{[(1R)-1-cyclobutylethyl]amino}-8-[5-(dimethylamino)-2-hydroxyphenyl]-7-[4-(trifluoromethyl)benzyl]-7H-purine-2-carboxylic acid]",77
13,"Cc1cccc(-c2nc3nc(C(=O)O)nc(N[C@H](C)C4CCC4)c3n2Cc2ccc(C(F)(F)F)cc2)c1C [Example 1.126, 6-{[(1R)-1-cyclobutylethyl]amino}-8-(2,3-dimethylphenyl)-7-[4-(trifluoromethyl)benzyl]-7H-purine-2-carboxylic acid]",18
14,"C=C(C)c1cc(C)nc(-c2nc3nc(C(=O)O)nc(N[C@H](C)C4CCC4)c3n2Cc2ccc(C(F)(F)F)cc2)c1 [Example 1.5, (R)-6-((1-cyclobutylethyl)amino)-8-(6-methyl-4-(prop-1-en-2-yl)pyridin-2-yl)-7-(4-(trifluoromethyl)benzyl)-7H-purine-2-carboxylic acid]",50.2
15,"CCc1ccc(OC)c(-c2nc3nc(C(=O)O)nc(N[C@H](C)C4CCC4)c3n2Cc2ccc(C(F)(F)F)cc2)c1 [Example 1.31, 6-{[(1R)-1-cyclobutylethyl]amino}-8-(5-ethyl-2-methoxyphenyl)-7-[4-(trifluoromethyl)benzyl]-7H-purine-2-carboxylic acid]",18.7

# Same assay, conditions: Table 2
row,Structure (SMILES),IC50 [nM]
1,"Cc1cccc(-c2nc3nc(C(=O)O)nc(N[C@H](C)C4CCC4)c3n2Cc2ccc(C(F)(F)F)cc2)c1 [Example 2.11, 6-{[(1R)-1-cyclobutylethyl]amino}-8-(3-methylphenyl)-7-[4-(trifluoromethyl)benzyl]-7H-purine-2-carboxylic acid]",36.6
2,"CC(C)c1cccc(-c2nc3nc(C(=O)O)nc(N[C@H](C)C4CC4)c3n2Cc2ccc(C(F)(F)F)cc2)c1 [Example 2.18, 6-{[(1R)-1-cyclopropylethyl]amino}-8-[3-(1-methylethyl)phenyl]-7-[4-(trifluoromethyl)benzyl]-7H-purine-2-carboxylic acid]",123
3,"Cc1cc(C2CC2)ccc1-c1nc2nc(C(=O)O)nc(N[C@H](C)C3CCC3)c2n1Cc1ccc(C(F)(F)F)cc1 [Example 2.2, (R)-6-((1-cyclobutylethyl)amino)-8-(4-cyclopropyl-2-methylphenyl)-7-(4-(trifluoromethyl)benzyl)-7H-purine-2-carboxylic acid]",151
4,"Cc1noc(C)c1-c1nc2nc(C(=O)O)nc(N[C@H](C)C3CCC3)c2n1Cc1ccc(C(F)(F)F)cc1 [Example 2.84, 6-{[(1R)-1-cyclobutylethyl]amino} -8-(3,5-dimethylisoxazol-4-yl)-7-[4-(trifluoromethyl)benzyl] - 7H-purine-2-carboxylic acid]",79.4
5,"CCc1cccc(-c2nc3nc(C(=O)O)nc(N[C@H](C)C4CCC4)c3n2Cc2ccc(C(F)(F)F)cc2)c1 [Example 2.23, 6-{[(1R)-1-cyclobutylethyl]amino}-8-(3-ethylphenyl)-7-[4-(trifluoromethyl)benzyl]-7H-purine-2-carboxylic acid]",16.7
6,"C[C@@H](Nc1nc(C(=O)O)nc2nc(-c3cccc(F)c3F)n(Cc3ccc(C(F)(F)F)cc3)c12)C1CC1 [Example 2.73, 6-{[(1R)-1-cyclopropylethyl]amino}-8-(2,3-difluorophenyl)-7-[4-(trifluoromethyl)benzyl]-7H-purine-2-carboxylic acid]",111
7,"C[C@@H](Nc1nc(C(=O)O)nc2nc(-c3cc(Cl)ccc3Cl)n(Cc3ccc(C(F)(F)F)cc3)c12)C1CCC1 [Example 2.63, 6-{[(1R)-1-cyclobutylethyl]amino}-8-(2,5-dichlorophenyl)-7-[4-(trifluoromethyl)benzyl]-7H-purine-2-carboxylic acid]",10.9
8,"C[C@@H](Nc1nc(C(=O)O)nc2nc(-c3cccc(F)c3)n(Cc3ccc(C(F)(F)F)cc3)c12)C1CC1 [Example 2.56, 6-{[(1R)-1-cyclopropylethyl]amino}-8-(3-fluorophenyl)-7-[4-(trifluoromethyl)benzyl]-7H-purine-2-carboxylic acid]",261
9,"CCc1cccc(-c2nc3nc(C(=O)O)nc(N[C@H](C)C4CC4)c3n2Cc2ccc(C(F)(F)F)cc2)c1 [Example 2.16, 6-{[(1R)-1-cyclopropylethyl]amino}-8-(3-ethylphenyl)-7-[4-(trifluoromethyl)benzyl]-7H-purine-2-carboxylic acid]",180
10,"C[C@@H](Nc1nc(C(=O)O)nc2nc(-c3cccc(C(C)(C)C)c3)n(Cc3ccc(C(F)(F)F)cc3)c12)C1CCC1 [Example 2.25, 8-(3-tert-butylphenyl)-6-{[(1R)-1-cyclobutylethyl]amino}-7-[4-(trifluoromethyl)benzyl]-7H-purine-2-carboxylic acid]",59.1
11,"C[C@@H](Nc1nc(C(=O)O)nc2nc(-c3ccc(F)cc3F)n(Cc3ccc(C(F)(F)F)cc3)c12)C1CCC1 [Example 2.68, 6-{[(1R)-1-cyclobutylethyl]amino}-8-(2,4-difluorophenyl)-7-[4-(trifluoromethyl)benzyl]-7H-purine-2-carboxylic acid]",22.4

# Same assay, conditions: Table 4
row,Structure (SMILES),IC50 [nM]
1,"Cc1ccc(C)c(-c2nc3nc(C(=O)O)nc(N[C@H](C)C4CCC4)c3n2Cc2ccc(Cl)cc2)c1 [Example 4.2, (R)-7-(4-chlorobenzyl)-6-((1-cyclobutylethyl)amino)-8-(2,5-dimethylphenyl)-7H-purine-2-carboxylic acid]",40.4
2,"COCCN(CCCOc1ccc(C)cc1-c1nc2nc(C(=O)O)nc(N[C@H](C)C3CC3)c2n1Cc1ccc(Cl)cc1)CCOC [Example 4.15, (R)-8-(2-(3-(bis(2-methoxyethyl)amino)propoxy)-5-methylphenyl)-7-(4-chlorobenzyl)-6-((1-cyclopropylethyl)amino)-7H-purine-2-carboxylic acid]",667
3,"Cc1ccc(O)c(-c2nc3nc(C(=O)O)nc(N[C@H](C)C4CC4)c3n2Cc2ccc(Cl)cc2)c1 [Example 4.18, (R)-7-(4-chlorobenzyl)-6-((1-cyclopropylethyl)amino)-8-(2-hydroxy-5-methylphenyl)-7H-purine-2-carboxylic acid]",347
4,"CCOc1ccc(C)cc1-c1nc2nc(C(=O)O)nc(N[C@H](C)C3CC3)c2n1Cc1ccc(Cl)cc1 [Example 4.7, (R)-7-(4-chlorobenzyl)-6-((1-cyclopropylethyl)amino)-8-(2-ethoxy-5-methylphenyl)-7H-purine-2-carboxylic acid]",123
